Among the data in patent publication US9624180B2, “Squaric derivatives for the treatment of hepatitis C” (priority 2013, dated 2017) are EC50 values, retold here.

SMILES strings stand for the structures. Where two headings read alike, the source gives them in different places.

This experiment deals with HCV pseudoparticles (genotype 1a HCV E1 and E2 envelope, H77C isolate). Put plainly: HCV pseudoparticle infection assay (luciferase reporter, entry into Huh7 cells). The conditions noted are these: Hepatitis C virus, Huh-7, 48 h. In kind it is cell-based, HCV genotype 1a. In general terms: In a reporter assay the amount or activity of a reporter protein is the signal.
[1] abbreviates: read-out: EC50 (1a, nM), genotype 1a HCV pseudoparticles, Huh7 cells, luciferase 2 days after infection, average of duplicates.
Where [2] appears, read: read-out: EC50 (1a, nM), genotype 1a HCV pseudoparticles, Huh7 cells, luciferase 2 days after infection, class symbol.

By EC50 is commonly meant the concentration giving half of the maximal effect.

Take `COC(=O)[C@H](CNc1c(OC)c(=O)c1=O)NC(=O)c1ccc(Nc2nc(NC3(c4ccc(Cl)cc4)CC3)nc(OCC(F)(F)F)n2)cc1` [Compound 1001, (S)-methyl 2-(4-(4-(1-(4-chlorophenyl)cyclopropylamino)-6-(2,2,2-trifluoroethoxy)-1,3,5-triazin-2-ylamino)benzamido)-3-(2-methoxy-3,4-dioxocyclobut-1-enylamino)propanoate]: the EC50 runs as follows: under setting [1], 117 nM; under setting [2], 10 to 1000 nM.
Take `CCOc1c(NC[C@H](NC(=O)c2ccc(Nc3nc(NC4(c5ccc(Cl)cc5)CC4)nc(OCC(F)(F)F)n3)cc2)C(=O)OC)c(=O)c1=O` [Compound 1002, (S)-methyl 2-(4-(4-(1-(4-chlorophenyl)cyclopropylamino)-6-(2,2,2-trifluoroethoxy)-1,3,5-triazin-2-ylamino)benzamido)-3-(2-ethoxy-3,4-dioxocyclobut-1-enylamino)propanoate]: under setting [2], the EC50 lay within 10 to 1000 nM.
For `COC(=O)[C@H](CNc1c(O)c(=O)c1=O)NC(=O)c1ccc(Nc2nc(NC3(c4ccc(Cl)cc4)CC3)nc(OCC(F)(F)F)n2)cc1` [Compound 1003, (S)-methyl 2-(4-(4-(1-(4-chlorophenyl)cyclopropylamino)-6-(2,2,2-trifluoroethoxy)-1,3,5-triazin-2-ylamino)benzamido)-3-(2-hydroxy-3,4-dioxocyclobut-1-enylamino)propanoate], the EC50 by setting is: under setting [1], 47 nM; under setting [2], 10 to 1000 nM.
As for `CCOc1c(NC[C@H](NC(=O)c2ccc(Nc3nc(NC4(c5ccc(Cl)cc5)CC4)nc(OCC(F)(F)F)n3)cc2)C(=O)O)c(=O)c1=O` [Compound 1004, (S)-2-(4-(4-(1-(4-chlorophenyl)cyclopropylamino)-6-(2,2,2-trifluoroethoxy)-1,3,5-triazin-2-ylamino)benzamido)-3-(2-ethoxy-3,4-dioxocyclobut-1-enylamino)propanoic acid], the EC50 under setting [2] was in the range of 10 to 1000 nM.
Still for that read-out and setting: then `CCOc1c(NCC(C)(C)CNC(=O)c2ccc(Nc3nc(NC4(c5ccc(Cl)cc5)CC4)nc(OCC(F)(F)F)n3)cc2)c(=O)c1=O` [Compound 1005, 4-((4-((1-(4-chlorophenyl)cyclopropyl)amino)-6-(2,2,2-trifluoroethoxy)-1,3,5-triazin-2-yl)amino)-N-(3-((2-ethoxy-3,4-dioxocyclobut-1-en-1-yl)amino)-2,2-dimethylpropyl)benzamide], with 0.01 to 10 nM.
`CC(C)(CNC(=O)c1ccc(Nc2nc(NC3(c4ccc(Cl)cc4)CC3)nc(OCC(F)(F)F)n2)cc1)CNc1c(O)c(=O)c1=O` [Compound 1006]: the EC50 under setting [1] was 0.52 nM and the EC50 under setting [2] was in the range of 0.01 to 10 nM.
In the case of `CC(C)(CNC(=O)c1ccc(Nc2nc(NC3(c4ccc(Cl)cc4)CC3)nc(OCC(F)(F)F)n2)cc1)CNc1c(NCC2CC2)c(=O)c1=O` [Compound 1007], the EC50 under setting [2] lay within 0.01 to 10 nM.
`CC(C)(CNC(=O)c1ccc(Nc2nc(NC3(c4ccc(Cl)cc4)CC3)nc(OCC(F)(F)F)n2)cc1)CNc1c(NCc2ccc(F)cc2F)c(=O)c1=O` [Compound 1008]: the EC50 by setting is: under setting [1], 0.05 nM; under setting [2], 0.01 to 10 nM.
On to `CC(C)(CNC(=O)c1ccc(Nc2nc(NC3(c4ccc(Cl)cc4)CC3)nc(OCC(F)(F)F)n2)cc1)CNc1c(NC2CCCCCC2)c(=O)c1=O` [Compound 1009], for which the EC50 under setting [2] lay in the range of 0.01 to 10 nM.
In the case of `CC(C)(CNC(=O)c1ccc(Nc2nc(NC3(c4ccc(Cl)cc4)CC3)nc(OCC(F)(F)F)n2)cc1)CNc1c(NCC2(CN3CCCC3)CC2)c(=O)c1=O` [Compound 1010], the EC50 under setting [2] is 0.01 to 10 nM.
As to `O=C(N[C@@H](CCNc1c(NCC2CC2)c(=O)c1=O)C(=O)NCC1CC1)c1ccc(Nc2nc(NC3(c4ccc(Cl)cc4)CC3)nc(OCC(F)(F)F)n2)cc1` [Compound 1011], the EC50 reads like this: under setting [1], 5.98 nM; under setting [2], 0.01 to 10 nM.
Regarding `O=C(N[C@@H](CCNc1c(NC2CCCCCCC2)c(=O)c1=O)C(=O)O)c1ccc(Nc2nc(NC3(c4ccc(Cl)cc4)CC3)nc(OCC(F)(F)F)n2)cc1` [Compound 1012], the EC50 under setting [2] lay within 0.01 to 10 nM.
Still for that read-out and setting: then `CC(C)(CNC(=O)c1ccc(Nc2nc(NC3(c4ccc(Cl)cc4)CC3)nc(OCC(F)(F)F)n2)cc1)CNc1c(Nc2ccccc2)c(=O)c1=O` [Compound 1013], with 0.01 to 10 nM.
Still for that read-out and setting: next, `O=C(N[C@@H](CCNc1c(Nc2ccccc2)c(=O)c1=O)C(=O)Nc1ccccc1)c1ccc(Nc2nc(NC3(c4ccc(Cl)cc4)CC3)nc(OCC(F)(F)F)n2)cc1` [Compound 1014]: 10 to 1000 nM.
Turning to `O=C(N[C@@H](CCNc1c(NCC2(Cn3ccnc3)CC2)c(=O)c1=O)C(=O)O)c1ccc(Nc2nc(NC3(c4ccc(Cl)cc4)CC3)nc(OCC(F)(F)F)n2)cc1` [Compound 1015], the EC50 under setting [1] turned out to be 6.55 nM and the EC50 under setting [2] is 0.01 to 10 nM.
As for `O=C(N[C@@H](CCNc1c(Nc2ccccc2)c(=O)c1=O)C(=O)O)c1ccc(Nc2nc(NC3(c4ccc(Cl)cc4)CC3)nc(OCC(F)(F)F)n2)cc1` [Compound 1016], under setting [2], the EC50 was in the range of 0.01 to 10 nM.
In the case of `O=C(N[C@@H](CCNc1c(N[C@@H]2C[C@H]3CC[C@@H]2C3)c(=O)c1=O)C(=O)O)c1ccc(Nc2nc(NC3(c4ccc(Cl)cc4)CC3)nc(OCC(F)(F)F)n2)cc1` [Compound 1017], under setting [2], the EC50 lay in the range of 0.01 to 10 nM.
With `O=C(N[C@@H](CCNc1c(NC2CCCCCC2)c(=O)c1=O)C(=O)NC1CCCCCC1)c1ccc(Nc2nc(NC3(c4ccc(Cl)cc4)CC3)nc(OCC(F)(F)F)n2)cc1` [Compound 1018], the EC50 under setting [2] lay within 0.01 to 10 nM.
Consider `O=C(N[C@@H](CCNc1c(N[C@@H]2C[C@H]3CC[C@@H]2C3)c(=O)c1=O)C(=O)N[C@@H]1C[C@H]2CC[C@@H]1C2)c1ccc(Nc2nc(NC3(c4ccc(Cl)cc4)CC3)nc(OCC(F)(F)F)n2)cc1` [Compound 1019], for which the EC50 under setting [2] is 10 to 1000 nM.
Take `O=C(N[C@@H](CCNc1c(NCc2ccc(F)cc2F)c(=O)c1=O)C(=O)NCc1ccc(F)cc1F)c1ccc(Nc2nc(NC3(c4ccc(Cl)cc4)CC3)nc(OCC(F)(F)F)n2)cc1` [Compound 1020]: the EC50 under setting [2] lay in the range of 0.01 to 10 nM.
For the compound `CCOC(=O)[C@H](CCNc1c(NC2CCCCCC2)c(=O)c1=O)NC(=O)c1ccc(Nc2nc(NC3(c4ccc(Cl)cc4)CC3)nc(OCC(F)(F)F)n2)cc1` [Compound 1021], the EC50 was 1.24 nM under setting [1] and 0.01 to 10 nM under setting [2].
